In patent publication US6642234B1, “Acrylonitrile compounds” (Nissan Chemical Industries, Ltd., priority 1998, dated 2003):

What was measured:
[1] = system: citrus red mite (Panonychus citri); experiment: Residual effect test for citrus red mite; format: in vivo; settings: Table 4, spray solution 100 ppm, 48 hours
Procedure: Residual Effect Test for Citrus Red Mite (Panonychus citri)
A 5% emulsion (or 25% wettable powder) of a compound of the invention was diluted with water containing a spreading agent to give a solution of the compound with prescribed concentration. The solution was sprayed over each orange planted in a pot in an amount of 250 ml/pot, using a rotary sprinkler, and the pot were left in the open air. After the prescribed days, the leaves of orange plants were punched into 3.0 cm-diameter discs, using a leaf punch, and put onto moistured filter paper in a 7 cm-diameter styrol cup. Ten larvae of citrus red mite (Panonychus citri) were put to each leaf. Then, the cups were stored in a thermostatic chamber at 25° C. After 48 hours passed, the mites in each cup were observed, and mortality of the mites was determined according to the same equation as in Test Example 1. Each compound was tested in that manner for four groups of dishes.
In the test, the following Compound A described in WO97/40009 was used as a comparative compound. [drawing 35]

[2] = system: two-spotted spider mites (Tetranychus urticae); experiment: Acaricidal test for two-spotted spider mites; format: in vivo; settings: 500 ppm solution sprayed 2 ml/cup on larvae on kidney bean leaf discs; 25° C.; after 96 hours
Procedure: [Test Example 1] Acaricidal Test For Two-spotted Spider Mites (Tetranychus urticae)
The leaves of kidney bean plants were punched into 3.0 cm-diameter discs, using a leaf punch, and put onto moistured filter paper in a 7 cm-diameter styrol cup. Ten larvae of two-spotted spider mites (Tetranychus urticae) were put to each leaf. A 5% emulsion (or 25% wettable powder) of a compound of the invention was diluted with water containing a spreading agent to give a 500 ppm solution of the compound. The solution was sprayed over each cup in an amount of 2 ml/cup, using a rotary sprinkler, and the cups were stored in a thermostatic chamber at 25° C. After 96 hours passed, the mites in each cup were observed, and mortality of the mites was determined according to the following equation. Each compound was tested in that manner for two groups of dishes.
Mortality (%)=[number of insect killed/(number of insect killed+number of living insect)]×100

`Cc1nn(-c2ccccc2)nc1/C(C#N)=C(\OC(=O)C(C)(C)C)c1c(C(F)(F)F)nn(C)c1Cl` [Compound A] showed a mortality at 100 ppm ([1]; 2 days left in the open air after spraying) of 17.5% and a mortality at 100 ppm ([1]; 4 days left in the open air after spraying) of 40%.
`COc1ccccc1-n1nc(C)c(C(C#N)=C(OC(=O)C(C)(C)C)c2c(Cl)c(C)nn2C)n1` (mixture of isomers) [compound 62] showed a mortality [2] of at least 80%.
Work on `Cc1nc(C)c(C(O)=C(C#N)c2nn(-c3ccccc3)nc2C)s1` [Compound No. 20, 3-(2,4-Dimethylthiazol-5-yl)-3-hydroxy-2-(5-methyl-2-phenyl-1,2,3-triazol4-yl)acrylonitrile] yielded a melting point of 117 to 118 °C.
